The nature of series [1]: Metformin drug-drug interaction study: urine pharmacokinetics of metformin. It is filed as in vivo, human.
The conditions of series [2]: Treatment B: single 1000 mg metformin + 10 mg Compound 1.
The nature of series [3]: Metformin drug-drug interaction study: safety (TEAEs). Conditions: for Any TEAEs leading to death, number of events / Any TEAEs leading to death, subjects: Treatment A = 1000 mg metformin alone (N = 26), Treatment B = 1000 mg metformin + 10 mg Compound 1 (N = 27). As for the experimental part:
Safety was assessed throughout the study based on adverse events (AEs), physical examinations, weight measurements, electrocardiograms (ECGs), vital signs assessments (seated and orthostatic), and clinical laboratory evaluations.
The following safety assessments were performed: • AEs and SAEs; • Clinical laboratory test assessments; • Vital signs including heart rate, blood pressure (BP) (including orthostatic BP when indicated), respiration rate, and temperature; • 12-lead ECGs; • Physical examinations; and • Height, weight, and BMI.
Safety analyses were performed throughout the study based on the Safety Population. Safety was evaluated through assessments of AEs, physical examinations, ECGs, weight measurements, vital signs assessments (seated and orthostatic), and clinical laboratory evaluations.
A TEAE was defined as an AE that emerged, having been absent prior to the study, or an AE that worsened in severity after the first dose of any drug in this study. TEAEs were summarized by MedDRA SOC and PT for each treatment and overall. The number and percentage of subjects experiencing TEAEs and the number of TEAEs were tabulated. Subjects reporting more than 1 AE for a given MedDRA PT were counted only once for that term using the most severe incident. Subjects reporting more than 1 type of event within a SOC were counted only once for that SOC. The Safety Population was used for all the safety analyses.

The next series is described as follows: clinical. Conditions: human, in vivo, 1000 mg; for AUC(0-inf): Metformin plasma AUC0-inf; for AUC(0-t): Metformin plasma AUC0-t.
In another series the target is aldosterone synthase (Homo sapiens, UniProt P19099). The note with it: cited from earlier work.
[4] abbreviates: Treatment A: single 1000 mg metformin alone.
Where [5] appears, read: Treatment B: single 1000 mg metformin + 10 mg Compound 1.
Where [6] appears, read: Treatment B: 10 mg Compound 1 with single 1000 mg metformin.

Structures are written as SMILES. Like-named read-outs stand apart in the source and are kept apart here.

Chain of aldosterone synthase (P19099 25-503, species assumed): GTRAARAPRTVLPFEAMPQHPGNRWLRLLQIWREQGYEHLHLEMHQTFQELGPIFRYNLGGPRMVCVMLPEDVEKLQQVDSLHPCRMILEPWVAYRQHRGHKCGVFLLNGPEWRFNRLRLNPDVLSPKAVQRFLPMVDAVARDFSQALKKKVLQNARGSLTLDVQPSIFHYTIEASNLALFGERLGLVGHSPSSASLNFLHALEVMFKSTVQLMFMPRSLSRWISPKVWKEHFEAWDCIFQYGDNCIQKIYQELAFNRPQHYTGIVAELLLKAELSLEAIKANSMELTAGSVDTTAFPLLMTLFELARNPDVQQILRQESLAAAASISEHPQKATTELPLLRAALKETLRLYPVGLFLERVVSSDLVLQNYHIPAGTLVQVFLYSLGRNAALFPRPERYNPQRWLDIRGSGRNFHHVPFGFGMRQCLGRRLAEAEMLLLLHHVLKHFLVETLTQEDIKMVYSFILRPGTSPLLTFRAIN

In the case of `CN(C)C(=N)N=C(N)N` [metformin], the “metformin dose excreted in the urine” value in series [1] (1000 mg metformin, presence and absence of Compound 1) is “approximately 30%”. In series [1] (setting [4]), the “Metformin urine Fe0-3, Mean (CV %)” value is recorded as 11.76 (33.0) %; the “Metformin urine Fe0-6, Mean (CV %)” value is reported as 21.50 (27.2) %; the “Metformin urine Fe0-9, Mean (CV %)” value is recorded as 25.40 (28.1) %; the “Metformin urine Fe0-12, Mean (CV %)” value was 27.42 (26.2) %. In addition, in series [1] (setting [4]), the “Metformin urine Fe0-18, Mean (CV %)” value is 29.11 (25.6) %; the “Metformin urine Fe0-24, Mean (CV %)” value is listed as 29.82 (25.1) %; the “Metformin urine Fe0-30, Mean (CV %)” value is listed as 30.21 (24.9) %; the “Metformin urine Fe0-36, Mean (CV %)” value was 30.50 (24.7) %. Moreover, in series [1] (setting [4]), the “Metformin urine Fe0-48, Mean (CV %)” value is 30.90 (24.5) % and the “Metformin urine Fe0-72, Mean (CV %)” value is on record as 31.23 (24.2) %. Moreover, in series [1] (setting [5]), the “Metformin urine Fe0-3, Mean (CV %)” value is listed as 10.47 (36.6) %; the “Metformin urine Fe0-6, Mean (CV %)” value is 19.06 (32.4) %; the “Metformin urine Fe0-9, Mean (CV %)” value is 23.11 (33.8) %; the “Metformin urine Fe0-12, Mean (CV %)” value is on record as 25.07 (32.5) %. In series [1] (setting [5]), the “Metformin urine Fe0-18, Mean (CV %)” value was 26.52 (31.3) %; the “Metformin urine Fe0-24, Mean (CV %)” value is recorded as 27.21 (30.6) %; the “Metformin urine Fe0-30, Mean (CV %)” value is given as 27.62 (30.3) %; the “Metformin urine Fe0-36, Mean (CV %)” value is recorded as 27.87 (30.0) %. In series [1] (setting [5]), the “Metformin urine Fe0-48, Mean (CV %)” value was 28.25 (29.4) % and the “Metformin urine Fe0-72, Mean (CV %)” value is 28.72 (28.9) %. For the same molecule, the “Metformin plasma AUC0-t, Geom LS Mean” value in series [2] worked out at 10683.45 ng·h/mL. In addition, in series [3], the “Any TEAEs leading to death, number of events” value was found to be 0 e and the “Any TEAEs leading to death, subjects” value was 0 (0.0) n (%). In series [3] (human, in vivo), the subjects experiencing diarrhoea was 3 (11.5%), the subjects experiencing nausea was 1 (3.7%) and the “subjects experiencing upper abdominal pain” value is recorded as “One (3.7%)”. Also, in the series “clinical” (Geom LS Mean), the AUC(0-inf) (as a rule, the area under the concentration-time curve extrapolated to infinity) came out at 11100 ng·h/mL and the AUC(0-t) (commonly exposure summed from dosing to a finite time, without extrapolation to infinity) amounted to 11000 ng·h/mL. In “clinical” (Mean (SD)), this molecule yielded an AUC(0-inf) of 11200 ng·h/mL and an AUC(0-t) of 11200 ng·h/mL.

As to `N#Cc1ccc([C@H]2CCc3cncn32)c(F)c1` [LCI1699], on aldosterone synthase (clinical trials by Novartis, discontinued), the “specificity for aldosterone synthase” value was “lack of specificity for aldosterone synthase”. Besides, on aldosterone synthase (previously observed), the “ACTH associated with aldosterone reductions” value was “corresponding increase in ACTH” and the “increase in predose 11-deoxycorticosterone levels” value is “up to 10 fold”.

For `CCC(=O)NC1CCCc2c(-c3ccc4c(c3)CCC(=O)N4C)cncc21` (stereo not drawn) [Compound 1, N-(4-(1-methyl-2-oxo-1,2,3,4-tetrahydroquinolin-6-yl)-5,6,7,8-tetrahydroisoquinolin-8-yl)propionamide], the “effect on metformin renal clearance” value in series [1] (10 mg Compound 1 2 hours prior to metformin dosing) is on record as “did not result in a reduction”. In series [3], the “Any TEAEs leading to death, number of events” value is listed as 0 e and the “Any TEAEs leading to death, subjects” value was 0 (0.0) n (%). In addition, under setting [6], the “Compound 1 plasma AUC%extrap, Mean (SD)” value is 9.9 (5.2) % and the “Compound 1 plasma λz, Mean (SD)” value is reported as 0.033 (0.008) 1/h. For the same molecule, the Tmax (as a rule, the time from dosing to the highest level) (human, plasma) was found to be 1.3 h. This molecule also returned an AUC(0-t) (human, plasma, Compound 1 plasma AUC0-24, Mean (SD), Treatment B: 10 mg Compound 1 with single 1000 mg metformin) of 1660 ng·h/mL. The AUC(0-t) (human, plasma, Compound 1 plasma AUC0-72, Mean (SD), Treatment B: 10 mg Compound 1 with single 1000 mg metformin) was found to be 2870 ng·h/mL.

The record behind these values is patent US20240277698A1, “METHODS OF USING ALDOSTERONE SYNTHASE INHIBITORS” (CINCOR PHARMA, INC., priority 2021, published 2024).
